Data as given in patent US9340590B2 (priority 2011, dated 2016).
Several values for one entry are separate records, joined by “and”; a condition that tells them apart may be missing. Identical values can stand only once. Entries after “also recorded” stand apart in the source; their conditions may differ. Like-named read-outs stand apart in the source and are kept apart here.

Tests used:
[1] = rat, in vivo, 0.1 mg/kg; cited from earlier work
[2] = tested on: C-fiber compound action potential; settings: cited from earlier work
mechanical hyperalgesia = settings: rat, in vivo; cited from earlier work
Nav1.8 = Nav1.8 (Rattus norvegicus, UniProt Q62968); settings: read-out: TTX IC50; cited from earlier work
Nav1.3 = Nav1.3 (Rattus norvegicus, UniProt P08104); settings: read-out: TTX IC50; cited from earlier work
Nav1.7 [3] = target: Nav1.7 (Rattus norvegicus, UniProt O08562); settings: read-out: TTX IC50; cited from earlier work
Nav1.6 = Nav1.6 (Rattus norvegicus, UniProt O88420); settings: read-out: TTX IC50; cited from earlier work
Nav1.4 = Nav1.4 (Rattus norvegicus, UniProt P15390); settings: read-out: TTX IC50; cited from earlier work
hNav1.3 [4] = target: T1, hNav1.3 (Homo sapiens, UniProt Q9NY46); assay: cell-based; settings: IonWorks Quattro; clamped to −110 mV, depolarized to −10 mV, 5 min after compound; n=2; read-out: IWQ Use Nav1.3
T1 sequence (Q9NY46 whole entry, looked up): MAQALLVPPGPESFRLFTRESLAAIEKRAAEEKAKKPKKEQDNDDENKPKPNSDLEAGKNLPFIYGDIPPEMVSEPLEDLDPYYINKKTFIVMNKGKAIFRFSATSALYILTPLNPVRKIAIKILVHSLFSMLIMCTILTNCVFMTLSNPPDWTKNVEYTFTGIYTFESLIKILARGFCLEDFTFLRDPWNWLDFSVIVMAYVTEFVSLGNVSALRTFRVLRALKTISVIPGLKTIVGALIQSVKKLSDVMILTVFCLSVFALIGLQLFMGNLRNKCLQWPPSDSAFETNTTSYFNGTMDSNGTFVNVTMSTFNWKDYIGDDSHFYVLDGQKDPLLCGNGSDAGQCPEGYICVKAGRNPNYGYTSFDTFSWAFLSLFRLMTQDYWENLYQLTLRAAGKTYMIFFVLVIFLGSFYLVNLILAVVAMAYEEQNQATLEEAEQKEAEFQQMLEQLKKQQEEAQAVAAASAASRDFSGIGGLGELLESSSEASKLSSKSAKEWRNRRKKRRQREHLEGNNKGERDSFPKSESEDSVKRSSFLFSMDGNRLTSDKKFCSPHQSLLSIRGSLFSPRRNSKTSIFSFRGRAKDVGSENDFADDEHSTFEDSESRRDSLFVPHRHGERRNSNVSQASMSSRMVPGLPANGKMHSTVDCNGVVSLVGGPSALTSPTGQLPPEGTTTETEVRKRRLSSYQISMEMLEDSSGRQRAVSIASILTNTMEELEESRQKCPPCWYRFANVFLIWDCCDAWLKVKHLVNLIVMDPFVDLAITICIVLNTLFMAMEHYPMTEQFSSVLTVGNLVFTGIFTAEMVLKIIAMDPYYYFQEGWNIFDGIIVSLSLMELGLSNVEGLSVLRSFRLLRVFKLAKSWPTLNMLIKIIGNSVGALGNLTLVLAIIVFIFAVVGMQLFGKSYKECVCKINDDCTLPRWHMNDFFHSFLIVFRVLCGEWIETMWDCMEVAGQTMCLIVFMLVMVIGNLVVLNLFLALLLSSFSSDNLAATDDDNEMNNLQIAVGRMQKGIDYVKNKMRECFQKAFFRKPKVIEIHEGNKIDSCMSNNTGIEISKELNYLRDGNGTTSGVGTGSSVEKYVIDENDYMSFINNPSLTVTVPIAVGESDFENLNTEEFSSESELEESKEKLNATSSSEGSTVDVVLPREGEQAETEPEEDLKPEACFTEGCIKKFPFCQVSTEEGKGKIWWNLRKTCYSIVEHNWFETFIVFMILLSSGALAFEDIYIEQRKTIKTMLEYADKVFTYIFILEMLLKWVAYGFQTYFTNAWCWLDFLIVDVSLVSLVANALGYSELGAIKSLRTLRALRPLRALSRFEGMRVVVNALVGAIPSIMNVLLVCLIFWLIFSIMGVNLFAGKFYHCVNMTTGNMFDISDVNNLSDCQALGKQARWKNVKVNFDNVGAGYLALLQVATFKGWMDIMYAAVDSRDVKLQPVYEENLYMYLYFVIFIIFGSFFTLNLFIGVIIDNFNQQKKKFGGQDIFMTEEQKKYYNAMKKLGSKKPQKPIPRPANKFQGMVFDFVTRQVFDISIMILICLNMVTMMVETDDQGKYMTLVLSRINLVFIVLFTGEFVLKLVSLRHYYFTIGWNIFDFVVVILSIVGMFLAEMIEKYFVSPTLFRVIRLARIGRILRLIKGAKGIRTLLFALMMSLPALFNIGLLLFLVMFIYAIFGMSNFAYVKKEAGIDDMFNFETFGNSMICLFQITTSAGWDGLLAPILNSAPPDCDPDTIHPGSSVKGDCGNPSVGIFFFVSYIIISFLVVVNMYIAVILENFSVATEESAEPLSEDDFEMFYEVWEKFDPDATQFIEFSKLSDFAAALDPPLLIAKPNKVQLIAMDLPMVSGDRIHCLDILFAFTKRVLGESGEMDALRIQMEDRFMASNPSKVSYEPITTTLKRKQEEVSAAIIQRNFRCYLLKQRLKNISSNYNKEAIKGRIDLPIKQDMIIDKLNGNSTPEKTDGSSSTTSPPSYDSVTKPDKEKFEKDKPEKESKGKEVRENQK

hNav1.7 [5] = target: T2, hNav1.7 (Homo sapiens, UniProt Q15858); assay: cell-based; settings: Nav1.7 Use IC50
hNav1.5 [6] = target: T3, hNav1.5 (Homo sapiens, UniProt Q14524); assay: cell-based; settings: PatchXpress counterscreen; held at −80 mV, prepulse −120 mV, test step −30 mV; read-out: IC50 against hNav1.5 (counterscreen)
T3 sequence (Q14524 whole entry, looked up): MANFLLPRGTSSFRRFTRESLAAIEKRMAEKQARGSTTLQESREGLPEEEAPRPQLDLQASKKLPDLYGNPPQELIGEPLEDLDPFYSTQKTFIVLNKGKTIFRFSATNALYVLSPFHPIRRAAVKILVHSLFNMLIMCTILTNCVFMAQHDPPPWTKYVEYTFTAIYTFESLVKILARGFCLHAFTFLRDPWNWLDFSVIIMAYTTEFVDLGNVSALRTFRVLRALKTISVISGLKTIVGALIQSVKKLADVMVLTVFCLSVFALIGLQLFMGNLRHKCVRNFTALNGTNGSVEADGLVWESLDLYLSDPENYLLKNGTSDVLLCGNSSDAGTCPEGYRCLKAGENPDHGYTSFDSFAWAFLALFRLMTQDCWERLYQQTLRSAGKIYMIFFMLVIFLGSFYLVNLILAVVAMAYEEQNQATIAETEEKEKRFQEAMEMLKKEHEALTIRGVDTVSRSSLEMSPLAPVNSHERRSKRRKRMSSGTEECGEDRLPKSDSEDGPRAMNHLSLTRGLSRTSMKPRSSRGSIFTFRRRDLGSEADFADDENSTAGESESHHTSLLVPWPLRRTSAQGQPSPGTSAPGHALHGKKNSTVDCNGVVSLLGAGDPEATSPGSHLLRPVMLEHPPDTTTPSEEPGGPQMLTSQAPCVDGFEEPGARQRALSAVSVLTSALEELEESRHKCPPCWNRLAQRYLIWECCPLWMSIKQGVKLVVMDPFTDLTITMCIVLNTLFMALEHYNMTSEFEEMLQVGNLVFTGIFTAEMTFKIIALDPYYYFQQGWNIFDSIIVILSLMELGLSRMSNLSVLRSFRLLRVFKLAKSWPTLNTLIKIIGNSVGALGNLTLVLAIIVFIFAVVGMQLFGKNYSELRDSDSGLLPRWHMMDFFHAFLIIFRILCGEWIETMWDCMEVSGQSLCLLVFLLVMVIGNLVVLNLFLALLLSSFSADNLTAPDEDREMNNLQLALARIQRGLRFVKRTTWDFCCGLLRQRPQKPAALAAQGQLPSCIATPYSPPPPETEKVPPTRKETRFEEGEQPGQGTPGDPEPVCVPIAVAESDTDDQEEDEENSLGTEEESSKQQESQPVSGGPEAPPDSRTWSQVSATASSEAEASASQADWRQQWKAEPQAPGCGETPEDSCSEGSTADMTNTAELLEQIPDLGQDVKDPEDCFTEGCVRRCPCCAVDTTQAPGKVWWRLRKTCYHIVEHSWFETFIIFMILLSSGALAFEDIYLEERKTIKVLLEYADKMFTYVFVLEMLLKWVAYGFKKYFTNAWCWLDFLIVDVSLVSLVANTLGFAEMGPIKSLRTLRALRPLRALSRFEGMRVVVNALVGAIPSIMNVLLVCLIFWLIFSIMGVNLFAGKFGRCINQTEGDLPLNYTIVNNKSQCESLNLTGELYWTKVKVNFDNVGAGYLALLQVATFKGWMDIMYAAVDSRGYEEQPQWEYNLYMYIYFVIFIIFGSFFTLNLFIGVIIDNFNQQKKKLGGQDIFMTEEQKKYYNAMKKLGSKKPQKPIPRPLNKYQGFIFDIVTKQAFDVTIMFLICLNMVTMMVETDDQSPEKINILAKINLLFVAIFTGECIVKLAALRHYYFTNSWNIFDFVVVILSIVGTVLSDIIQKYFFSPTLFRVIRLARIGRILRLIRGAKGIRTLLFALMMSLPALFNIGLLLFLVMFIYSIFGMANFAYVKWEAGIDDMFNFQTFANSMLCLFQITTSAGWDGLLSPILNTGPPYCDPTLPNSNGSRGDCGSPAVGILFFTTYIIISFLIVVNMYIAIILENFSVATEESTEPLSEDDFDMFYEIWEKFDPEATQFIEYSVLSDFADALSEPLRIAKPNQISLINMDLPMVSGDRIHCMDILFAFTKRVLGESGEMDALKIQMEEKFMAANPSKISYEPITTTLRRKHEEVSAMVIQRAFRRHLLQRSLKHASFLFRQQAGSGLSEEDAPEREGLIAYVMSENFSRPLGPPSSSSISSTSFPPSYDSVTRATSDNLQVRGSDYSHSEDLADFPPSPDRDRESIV

[7] = tested on: TTX-sensitive Nav channels in mouse DRG neurons; assay type: cell-based
hNav1.2 = hNav1.2 (Homo sapiens, UniProt Q99250); assay: cell-based; settings: partially inactivated channels; read-out: IC50 against partially inactivated hNav1.2 channels
in vitro [8] = settings: mouse, plasma
hERG = hERG (Homo sapiens, UniProt Q12809); assay: cell-based
hERG, sequence (Q12809 whole entry): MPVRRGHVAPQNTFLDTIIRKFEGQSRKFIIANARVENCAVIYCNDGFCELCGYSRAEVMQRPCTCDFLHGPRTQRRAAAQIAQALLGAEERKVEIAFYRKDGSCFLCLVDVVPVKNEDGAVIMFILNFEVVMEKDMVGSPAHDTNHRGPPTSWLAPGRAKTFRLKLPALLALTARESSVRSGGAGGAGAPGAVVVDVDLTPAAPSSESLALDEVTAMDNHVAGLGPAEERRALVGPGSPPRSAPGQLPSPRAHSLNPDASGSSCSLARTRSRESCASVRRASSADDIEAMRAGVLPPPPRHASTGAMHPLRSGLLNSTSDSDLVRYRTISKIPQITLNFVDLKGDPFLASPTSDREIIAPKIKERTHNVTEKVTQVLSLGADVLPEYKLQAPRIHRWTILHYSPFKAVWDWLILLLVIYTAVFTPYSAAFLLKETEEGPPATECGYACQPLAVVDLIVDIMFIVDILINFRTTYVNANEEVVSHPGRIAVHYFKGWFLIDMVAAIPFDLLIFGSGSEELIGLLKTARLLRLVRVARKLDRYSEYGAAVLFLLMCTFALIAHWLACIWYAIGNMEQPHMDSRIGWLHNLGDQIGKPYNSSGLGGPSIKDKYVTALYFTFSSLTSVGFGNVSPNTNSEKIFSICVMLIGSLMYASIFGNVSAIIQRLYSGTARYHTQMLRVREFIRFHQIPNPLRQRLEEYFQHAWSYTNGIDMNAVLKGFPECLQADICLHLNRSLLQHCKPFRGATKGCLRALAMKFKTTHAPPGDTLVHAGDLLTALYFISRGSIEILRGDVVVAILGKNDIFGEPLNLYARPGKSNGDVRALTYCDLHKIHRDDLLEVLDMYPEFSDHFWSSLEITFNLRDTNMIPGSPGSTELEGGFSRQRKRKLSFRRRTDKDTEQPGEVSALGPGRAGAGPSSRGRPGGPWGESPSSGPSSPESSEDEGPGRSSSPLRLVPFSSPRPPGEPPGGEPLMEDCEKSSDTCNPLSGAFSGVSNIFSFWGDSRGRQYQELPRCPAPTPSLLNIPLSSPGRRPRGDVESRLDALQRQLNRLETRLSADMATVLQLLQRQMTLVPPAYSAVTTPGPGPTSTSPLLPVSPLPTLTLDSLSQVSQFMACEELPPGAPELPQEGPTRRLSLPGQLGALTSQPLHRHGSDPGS

hNav1.7 [9] = target: T2, hNav1.7; assay: cell-based; assay type: cell-based
[10] = tested on: voltage-gated potassium currents; assay type: cell-based; settings: 500 nM; rat DRG neuron, step to 0 mV from −90 mV
[11] = mouse plasma, 37° C., incubation time 0 hr (normalisation point)
[12] = human plasma, 37° C., incubation time 0 hr (normalisation point)
[13] = tested on: isolated perfused rabbit heart
[14] = tested on: formalin pain model in male CD-1 mice; settings: for time spent lifting/licking, first phase / time spent lifting/licking, second phase: third study
hNav1.5 [15] = target: T3, hNav1.5; assay: cell-based; settings: IonWorks Quattro; clamped to −110 mV, depolarized to −10 mV, 5 min after compound; n=2; read-out: IWQ Use Nav1.5
[16] = tested on: locomotor activity in male CD-1 mice
hNav1.7 [17] = target: T2, hNav1.7; assay type: cell-based
in vivo [18] = settings: male, CD-1, mouse, sc
fast sodium current = assay type: cell-based; settings: 500 nM; rat DRG neuron, step to 0 mV from −90 mV
hNav1.3 [19] = target: T1, hNav1.3; assay: cell-based; assay type: cell-based; settings: Nav1.3 Use IC50
hNav1.5 [20] = target: T3, hNav1.5; assay: cell-based
in vitro [21] = settings: human, plasma
[22] = tested on: isolated perfused rabbit heart; remark: listed apart in the source
in vivo [23] = settings: male, CD-1, mouse, sc, terminal exposure (peptide plasma concentration at 2 h post peptide injection)
in vivo [24] = settings: CD-1, mouse
NaV1.7 [25] = settings: read-out: EC50, impairs fast inactivation; cited from earlier work
[26] = tested on: veratridine-induced spontaneous nociceptive behaviors in male CD-1 mice; settings: mouse, in vivo
[27] = first study, 5 mg/kg s.c., 1-hour pre-treatment
[28] = later studies (FIGS. 99-110), 5 mg/kg s.c., 1-hour pre-treatment

YCQKWMWTCDSERKCCEGMVCRLWCKKKLW [ProTx-II, YCQKWMWTCDSERKCCEGMVCRLWCKKKLW]
tolerability in rats [1]: lethal
C-fiber compound action potential [2]: completely blocked
action potential propagation [2]: little effect
efficacy in a mechanical hyperalgesia study (mechanical hyperalgesia): not efficacious

NC1=N[C@H](O)[C@H]2[C@H]3O[C@]4(O)O[C@@H]([C@@H](O)[C@@]2(N1)[C@@H]4O)[C@]3(O)CO [TTX, tetrodotoxin]
IC50 (Nav1.8): > 50000 nM
IC50 (Nav1.3): 2 to 15 nM
IC50 (Nav1.7 [3]): 4 nM
IC50 (Nav1.6): 1 nM
IC50 (Nav1.4): 5 nM

CC[C@H](C)[C@@H]1NC(=O)[C@@H]2CSSC[C@@H]3NC(=O)[C@H](C(C)C)NC(=O)[C@H](CC(C)C)NC(=O)[C@H](CC(N)=O)NC(=O)[C@@H]4CCCN4C(=O)[C@H](CCCNC(=N)N)NC(=O)[C@H](CSSC[C@H](NC(=O)[C@@H](N)CC(=O)O)C(=O)N[C@@H](CC(C)C)C(=O)NCC(=O)N[C@@H](C)C(=O)N[C@@H](CCSC)C(=O)N[C@@H](CCCNC(=N)N)C(=O)N[C@@H](CCCCN)C(=O)N2)NC(=O)[C@H](CSSC[C@@H](C(=O)N[C@@H](CCCCN)C(=O)N[C@@H](Cc2ccc(O)cc2)C(=O)N[C@H](C(=O)N[C@@H](Cc2ccccc2)C(N)=O)C(C)C)NC(=O)[C@H](Cc2c[nH]c4ccccc24)NC(=O)[C@H](CCCCN)NC(=O)[C@H](Cc2cnc[nH]2)NC(=O)[C@H]([C@@H](C)O)NC(=O)[C@H](CCCNC(=N)N)NC(=O)[C@H](CO)NC3=O)NC(=O)[C@H](CCCCN)NC(=O)[C@H](CC(=O)O)NC(=O)[C@H](CC(N)=O)NC(=O)[C@H](CC(=O)O)NC(=O)[C@@H]2CCCN2C1=O [SEQ ID NO: 22]
IC50 (hNav1.3 [4]): 1750 nM
IC50 (hNav1.7 [5]): 18 nM and 34 nM and 30 nM and 14 nM
IC50 (hNav1.5 [6]): > 30000 nM
block of TTX-sensitive Nav current, time course of increasing concentrations [7]: blocked nearly all TTX-sensitive Nav current
block of TTX-sensitive versus TTX-resistant Nav current [7]: selectively blocked TTX-sensitive Nay current but not TTX-resistant Nav current
IC50 ([7]; cells held at −140 mV, read-out: IC50 against TTX-sensitive sodium channels in mDRG neurons): 17 nM
IC50 (hNav1.2): 265 nM
remaining at 2 h (in vitro [8]): 106%
remaining at 4 h (in vitro [8]): 107%
remaining at 8 h (in vitro [8]): 105%
remaining at 24 h (in vitro [8]): 99%
IC50 (hERG): > 10000 nM
IC50 (hNav1.7 [9]): 640 nM
effect on voltage-gated potassium currents [10]: did not block voltage-gated potassium currents
% peptide remaining [11]: 100%
% peptide remaining [12]: 100%
Flow, mean, normalized value [13]: 0.29%
LVDP, mean, normalized value [13]: −3.16%
LVDevP, normalized value [13]: −7.22%
LVSP, mean, normalized value [13]: −8.81%
dP/dt+, mean, normalized value [13]: −6.55%
dP/dt−, mean, normalized value [13]: −2.93%
LV contractility (dP/dt+) ([13]; 1 μM, 20 minutes): no effects
coronary blood flow (CF) ([13]; 1 μM, 20 minutes): no effects
coronary vasculature ([13]; 1 μM, 20 minutes): no direct effects
plasma concentrations with significant reproducible reduction in paw lifting/licking ([14]; first two mouse formalin experiments): 0.60 to 0.80 µM
time spent lifting and/or licking the affected paw, second phase (5-40 minutes post formalin injection) ([14]; mouse, in vivo): significantly reduced
time spent lifting/licking, first phase ([14]; peptide 1 mg/kg s.c.): appeared to increase
time spent lifting/licking, second phase ([14]; peptide 1 mg/kg s.c.): not significantly different
time spent lifting/licking, first phase ([14]; peptide 3 mg/kg s.c.): appeared to increase
time spent lifting/licking, second phase ([14]; peptide 3 mg/kg s.c.): appeared to significantly increase
IC50 (hNav1.5 [15]): 10300 nM
total fine movement [16, 27]: significantly reduced
total time rearing [16, 27]: significantly reduced
total basic movement [16, 28]: significantly reduced
total fine movement [16, 28]: significantly reduced
total rearing [16, 28]: significantly reduced
total time rearing [16, 28]: significantly reduced
peptide plasma concentrations resulting in significant effects on locomotor activity ([16]; mouse, in vivo): > 1.5 µM
inhibition of the Nav1.7 current (hNav1.7 [17]): complete inhibition
IC50 (hNav1.7 [17]; read-out: IC50 against partially inactivated hNav1.7 channels): 13.2 nM
level at time molar at […] (in vivo [18]; 0.5 mg/kg, terminal exposure (peptide plasma concentration at 45 min post formalin injection), second study, 0.5 mg/kg s.c.): 40 nM
level at time molar at […] (in vivo [18]; 1 mg/kg, terminal exposure (peptide plasma concentration at 45 min post formalin injection), third study, 1 mg/kg s.c.): 200 ± 50 nM
level at time molar at […] (in vivo [18]; 3 mg/kg, terminal exposure (peptide plasma concentration at 45 min post formalin injection), third study, 3 mg/kg s.c.): 530 ± 230 nM
level at time molar at […] (in vivo [18]; 5 mg/kg, terminal exposure (peptide plasma concentration at 45 min post formalin injection), second study, 5.0 mg/kg s.c.): 580 ± 260 nM
level at time molar at […] (in vivo [18]; 5 mg/kg, terminal exposure (peptide plasma concentration at 45 min post formalin injection), third study, 5 mg/kg s.c.): 1840 ± 180 nM
level at time molar at […] (in vivo [18]; 5 mg/kg, terminal plasma exposure (peptide plasma concentration at 45 min post formalin injection), first study, 5 mg/kg s.c.): 800 ± 210 nM
effect on fast sodium current (fast sodium current): blocked fast sodium current; also recorded: steadily decreased
IC50 (hNav1.3 [19]): 129 nM and 158 nM
IC50 (hNav1.5 [20]): > 10000 nM
remaining at 2 h (in vitro [21]): 105%
remaining at 4 h (in vitro [21]): 99%
remaining at 8 h (in vitro [21]): 101%
remaining at 24 h (in vitro [21]): 105%
HR, normalized value, mean [22]: −0.18%
JT, normalized value, mean [22]: −4.57%
JTcF, normalized value, mean [22]: −4.60%
PR, normalized value, mean [22]: −3.52%
QRS, normalized value, mean [22]: −1.55%
QT, normalized value, mean [22]: −4.19%
QTcF, normalized value, mean [22]: −4.22%
heart rate ([22]; 1 μM, 20 minutes): no effects
ventricular depolarization and conduction (QRS and PR intervals) ([22]; 1 μM, 20 minutes): no effects
ventricular repolarization (QTc or JTc intervals) ([22]; 1 μM, 20 minutes): no delaying effects
level at time molar at 2 h (in vivo [23]; 3 mg/kg, first study, 3 mg/kg s.c.): 890 ± 330 nM
level at time molar at 2 h (in vivo [23]; 5 mg/kg, first study, 5 mg/kg s.c.): 1790 ± 380 nM
level at time molar at 2 h (in vivo [23]; 5 mg/kg, later studies, 5 mg/kg s.c.): 2100 ± 470 nM
tolerability in mice (1 mg/kg i.v.): tolerated
exposure in blood (1 mg/kg s.c.): measurable exposure
sustained peptide concentration in the plasma (5 mg/kg s.c.): about 0.6 μM
time plasma concentration was sustained (5 mg/kg s.c.): 3 h
half-life (in vivo [24]; sc, 5 mg/kg): 36 min
level at time molar (in vivo [24]; sc, 5 mg/kg): ~600 nM
half-life (in vivo [24]; male, iv, 1 mg/kg): ~15 min

GVRDAYIADDKNCVYTCASNGYCNTECTKNGAESGYCQWIGRYGNACWCIKLPDEVPIRIPGKCR [OD1]
EC50 (NaV1.7 [25]): 4.5 nM

Cc1cccc(C)c1OCC(C)N (stereo not shown) [mexiletine, reference compound]
veratridine-induced paw lifting behavior [26]: significantly reversed
